Test results taken from publication PMC11311998, “AR71, Histamine H3 Receptor Ligand—In Vitro and In Vivo Evaluation (Anti-Inflammatory Activity, Metabolic Stability, Toxicity, and Analgesic Action)” (International Journal of Molecular Sciences, 2024).
Several values for one entry are separate records, joined by “and”; a condition that tells them apart may be missing. Identical values can stand only once.

Columns and labels:
[1] = metabolic stability in human liver microsomes; type: in vitro ADME
Experimental: The metabolic stability of AR71 was assessed in vitro using human liver microsomes (HLMs). […] After 120 min of incubation with HLMs, 85% of AR71 remained unchanged. However, during this time, six metabolites were formed (Figure S4a–d, Supplementary Materials). The metabolite M1 was formed in the highest amount (5.5%). The others were formed in amounts of 0.6% to 1.2%. Based on an analysis of their molar masses, and with the help of MetaSite 6.0.1, a type of metabolic transformation was proposed. The identified in vitro AR71 metabolic pathways and the most probable site of metabolism predicted by MetaSite 6.0.1 are shown in Table 1.
Metabolic stability was assessed in human liver microsomes (HLMs, Sigma-Aldrich, St. Louis, MO, USA), as previously described. After 120 min of incubation with HLMs, liquid chromatography–mass spectrometry (Waters ACQUITY TQD system with the TQ Detector, Waters, Milford, MA, USA) was used to identify the formed metabolites. MetaSite 6.0.1 software (Molecular Discovery Ltd., Hertfordshire, U.K.) was used to predict the most probable sites of metabolism in silico.

SH-SY5Y cells [2] = experiment: viability of neuroblastoma cells (MTS assay); type: cell-based, human
Experimental: The toxicity of AR71 in neuroblastoma cells was evaluated with the 3-(4,5-dimethylthiazol-2-yl)-5-(3-carboxymethoxyphenyl)-2-(4-sulfophenyl)-2H-tetrazolium (MTS) assay. The cells were cultured with AR71 at various concentrations ranging from nanomolar to micromolar for 24 h.
SH-SY5Y cells (the human neuroblastoma cell line) were purchased from the American Type Culture Collection (ATCC® no. CRL-2266™; Manassas, VA, USA). The cells were grown in a complete culture medium containing DMEM/F-12 medium (Gibco no. A41920-01) supplemented with 10% foetal bovine serum (FBS, Gibco no. 10500-064), non-essential amino acids (Biowest, Nuaillé, France), and antibiotics (Life Technologies) in a humidified incubator containing 95% air and 5% CO2 at 37 °C. Experiments were performed with SH-SY5Y cells from passage (15 up to 25—W.W.).
Neurotoxicity evaluation was performed with the SH-SY5Y cell line. The cells were seeded (5 × 10^3 cells/100 μL/well) in transparent 96-well plates (Corning Falcon, no. 353072, Merck KGaA, Darmstadt, Germany), in a complete culture medium and cultured overnight. The next day, the medium was removed and replaced with a fresh one containing 0.1% DMSO (vehicle control, Veh) or increasing concentration of the AR71 compound (the concentrations studied covered the range of nanomolar and micromolar concentrations). Treatment with the compounds was performed for 24 h. At the end of the incubation time, the cells were examined under an inverted microscope to rule out possible precipitation of the compound in the culture medium. Cell viability was examined using an MTS-based CellTiter96® AQueous One Solution Cell Proliferation Assay (Promega, Madison, WI, USA) following the manufacturer’s protocol. Briefly, 20 μL of MTS solution was pipetted directly into each well containing 100 μL of culture medium with or without cells (blank) and incubated at 37 °C for 1 h. The absorbance was measured at 490 nm using the Tecan Spark multimode plate reader (Tecan, Männedorf, Switzerland). A reference wavelength of 630 nm was used to subtract the background. The viability of individual samples was calculated relative to the vehicle-treated cells (0.1% DMSO). The results are presented as means with SEMs of two independent experiments, each comprising four replicates per treatment group. Data from the MTS assay were used to determine the IC50 value. It was calculated by fitting a nonlinear regression to a sigmoidal dose–response curve in GraphPad Prism version 8.0.1 (GraphPad Software, Inc., San Diego, CA, USA).

SH-SY5Y cells [3] = experiment: cell number / growth, image cytometry; type: cell-based; settings: Homo sapiens
Experimental: To evaluate the growth dynamics of SH-SY5Y cells in the presence of AR71, neuroblastoma cells were treated with increasing concentrations (0.39–25 µM) of the compound tested for 24 or 72 h. Using image cytometry, we calculated the DNA content index as a 2N/4N DNA ratio to analyse the cell cycle distribution after 24 and 72 h of incubation with AR71.
SH-SY5Y cells were initially seeded in 96-well plates at a density of 5000 cells per well in 120 μL of medium. After 24 h, the cells were exposed to different concentrations of AR71 for either 24 or 72 h. […] Subsequently, images of 16 fields per well were captured using the ArrayScan VTI HCS Reader from Thermo Fisher Scientific, Inc. (Thermo Fisher Scientific, Waltham, MA, USA), which was equipped with a 5× objective. The cell number was calculated as the sum of the Hoechst-33342-stained cell nuclei using Cell Cycle Bioapplication V3 software and expressed as a per cent of control. […] In the next step, a series of detailed images were acquired using the ArrayScan VTI HCS Reader equipped with a 10× objective to collect at least 500 nuclei/cells per replicate. The DNA cell content of single cells was analysed based on Hoechst-33342 fluorescence intensity of their nuclei using Cell Cycle Bioapplication V3 software and presented as the DNA 2N/4N ratio. […]

hH4R = target: hH4R; parameters: method as in PMID 36370200; settings: cited from earlier work

COc1cc(/C=C/C(=O)c2ccc(OCCCN3CCCCC3)cc2)cc(OC)c1OC [AR71, (E)-3-(3,4,5-trimethoxyphenyl)-1-(4-(3-(piperidin-1-yl)propoxy)phenyl)prop-2-en-1-one]
number of metabolites formed ([1]; 120 min incubation with HLMs): six | parent compound remaining unchanged ([1]; 120 min incubation with HLMs): 85% | parent compound remaining unchanged ([1]; 120 min incubation with HLMs, listed as AR-71): 85.40% | metabolic stability ([1]; HLMs): rather metabolically stable | loss in neuroblastoma viability vs control cells (SH-SY5Y cells [2]; 50 μM, 24 h): 73% | concentration from which cell metabolic activity decreased significantly (p < 0.001) (SH-SY5Y cells [2]; 24 h): ≥ 4.17 µM | IC50 (SH-SY5Y cells [2]; Homo sapiens, SH-SY5Y, 24 h incubation): 24.9 µM | effect on cell viability (SH-SY5Y cells [2]; concentrations up to 0.72 μM, 24 h): did not affect cell viability | IC50 (SH-SY5Y cells [3]; 24 h incubation): 8.46 µM | IC50 (SH-SY5Y cells [3]; 72 h incubation): 3.19 µM | Ki (hH4R): 2.81 µM and > 2.5 µM
